≈ marks a conversion by molar mass, not a printed value.
Legend:
Saccharomyces cerevisiae [1] = assay: DNA damaging activity against RS321 DNA repair gene deficient Saccharomyces cerevisiae mutant assessed as drug level required to produce 12 mm zone of inhibition after 48 hrs; assay type: functional
Saccharomyces cerevisiae [2] = assay: DNA damaging activity against RS167N rad6 DNA repair gene deficient Saccharomyces cerevisiae mutant assessed as drug level required to produce 12 mm zone of inhibition after 48 hrs; assay type: functional
Saccharomyces cerevisiae [3] = assay: DNA damaging activity against RS322YK rad52Y DNA repair gene deficient Saccharomyces cerevisiae mutant assessed as drug level required to produce 12 mm zone of inhibition after 48 hrs; assay type: functional
Saccharomyces cerevisiae [4] = assay: DNA damaging activity against RS188N rad DNA repair gene expressing Saccharomyces cerevisiae assessed as drug level required to produce 12 mm zone of inhibition after 48 hrs; assay type: functional
[5] = Cytotoxicity against CHOAUXB1 cells; assay type: cell-based; conditions: Cricetulus griseus

Row | SMILES | IC12 (Saccharomyces cerevisiae [1]) [µg/mL] | IC12 (Saccharomyces cerevisiae [2]) [µg/mL] | IC12 (Saccharomyces cerevisiae [3]) [µg/mL] | IC12 (Saccharomyces cerevisiae [4]) [µg/mL] | IC50 [5] [µg/mL]
1 | CC(C)=CCC/C(C)=C/CNC(=N)NC/C=C(\C)CCC=C(C)C [NITENSIDINE A] | 6 | > 8000 | > 1000 | > 1000 | 13 (≈ 39.2 µM)
2 | CC[C@@]1(O)C(=O)OCc2c1cc1n(c2=O)Cc2cc3ccccc3nc2-1 [CAMPTOTHECIN] | – | 8.7 | 0.6 | – | 0.016 (≈ 0.0459 µM)
3 | CC(C)=CCNC(=N)NCC=C(C)C [PTEROGYNIDINE] | 8.5 | > 1000 | > 1000 | > 1000 | –
4 | CC(C)=CCC/C(C)=C/CN(C/C=C(\C)CCC=C(C)C)C(=N)N [NITENSIDINE B] | 10 | > 8000 | > 500 | > 1000 | 9.3 (≈ 28.1 µM)
5 | COC1=C(N)C(=O)c2nc(-c3nc(C(=O)O)c(C)c(-c4ccc(OC)c(OC)c4O)c3N)ccc2C1=O [STREPTONIGRIN] | – | 2.4 | 0.4 | – | –
6 | CC(C)=CCC/C(C)=C/CN(C)C(=N)N(C)C/C=C(\C)CCC=C(C)C [NITENSIDINE C] | 13 | > 8000 | > 8000 | > 8000 | 20 (≈ 55.6 µM)

Reference: ChEMBL document CHEMBL1150088, “Bioactive Guanidine Alkaloids from Pterogyne nitens” (J Nat Prod, 1995)
